Measurements as given in patent US20240415798A1, “COMPOSITIONS AND METHODS FOR TREATING MUCOSITIS” (Enzychem Lifesciences Corporation, priority 2021, published 2024).
Values joined by “and” are separate entries in the source; they are usually repeats but may differ in a detail not shown here. Identical values can stand only once.

What was measured:
[1] = Phase 2 clinical study of EC-18, safety (SAE/AE, MTD); format: in vivo
Experimental: (§1) For the study, 25 large institutions and hospitals experienced with head and neck cancer treatment were selected • Stage 1: To Evaluate safety and MTD that can be used for Stage 2 iDSMB: Data and Safety Monitoring Board reviewed safety data every 2 weeks and approved for Stage 2 using MTD 2000 mg. • Stage 2: To Evaluate safety and efficacy 7 weeks Active and 4-6 weeks of STFU until OM is resolved. • 2.0-2.2 Gy daily fraction (5 days a week for 7 weeks) and I week (40 mg/m2) or every 3 weeks (100 mg/m2) cisplatin. • Minimum cumulative radiation dose of 55 Gy.
Stage 1 had 17 total SAEs from a total of 24 patients when Stage 2 had 31 total SAEs from a total of 81 patients. 020-018 patient was determined by investigator to be not related to study drug. Many SAEs occurred due to nausea and vomiting which is a normal symptom for chemo treatment

IL-1β = assay: Luminex assay of patient plasma, IL-1β; format: in vivo, human
Experimental: (§2) The plasma sample collected from the blood of patients listed in (Table 1 below) was thawed and centrifuged at 10,000 rpm at 4° C. for 2 minutes, and the supernatant was used for analysis. The supernatant was serially diluted, and 50 μl of the samples were dispensed to each well in a 96-well plate. 5O μl of diluted Microparticle Cocktail (R&D systems) shown in Table 2 was added to each well containing samples and incubated for 2 hours at room temperature on a shaker at 800 rpm. The sample mixture was removed and washed with 100 μl of washing buffer three times. Then, 50 μL of diluted Biotin-Antibody Cocktail (R&D systems) to each well and incubate for 1 hour at RT on the shaker at 800 rpm, followed by three times of washing with wash buffer. 50 μL of diluted […] at RT on the shaker at 800 rpm. After washing with wash buffer three times, 100 μl of wash buffer was added to each well, and the sample's fluorescence intensity was obtained using a Luminex analyzer (Luminex) within 90 mins.
(§3) Standard, control and the sample was quantitatively analyzed using the average value of the results obtained by duplicate test.
(§4) The absolute value of each sample's mean fluorescence intensity (MFI) was obtained by comparing it to the standard curve. The value derived as an under-standard was marked as 0 because it is a trace value outside the detection range of the assay kit.
(§5) The standard curve was obtained by the best fit method in ‘MasterPlex QT 2010 (MiraiBio, Hitachi, CA, USA)’ to calculate the response measured value (MFI) for each standard concentration, which has the highest R square value among each calculation method (Highest value =1.0). The sample's resultant concentration value was calculated based on this standard curve.

TGFβ = assay: Luminex assay of patient plasma, TGFβ; format: in vivo, human
Experimental: as §2, §3, §4, §5

[2] = tested on: severe oral mucositis (SOM); assay: Phase 2 clinical study of EC-18 in chemoradiation-induced oral mucositis (efficacy); format: in vivo, human
Description: Human patients of the following characteristics were enrolled: • 18 years or older • Diagnosis of squamous cell carcinoma of the mouth, oropharynx, hypopharynx or nasopharynx • Planned to receive IMRT with daily fractions of 2.0 Gy to 2.2 Gy to a cumulative dose of at least 60 Gy and a maximum of 72 Gy • Radiation fields to include at least two mucositis sites at risk (buccal mucosa, floor of mouth, ventral and lateral tongue, soft palate) in which both sites receive a minimum cumulative dose of 55 Gy • Planned to receive concomitant single agent chemotherapy with cisplatin
EC-18 was administered in varying patients of the treatment group up to 2000 mg/day. Recommended therapy was 500 mg EC-18 capsule administered 4 times throughout the day (e.g., 2 capsules of 500 mg EC-18 administered within 30 mins after taking breakfast and dinner) for a total daily dosage of 2000 mg EC-18 per day. Treatment protocol lasted 7 weeks while radiation therapy and cisplatin therapy continued during the same time.
as §1
For Efficacy, measured duration of severe oral mucositis (SOM), Incidence of SOM during active treatment.
In Stage 1, we included Stage 1 placebo and 2000 mg patients to Stage 2 for efficacy analysis: • Placebo group: Stage 1 n=2, Stage 2 n=18: Total: 20 • EC-18 2000 mg group: Stage 1 n=5, Stage 2 n=17: Total: 22

[3] = regardless of the incidence of SOM
[4] = PP population, EC-18 2,000 mg vs placebo

CCCCC/C=C\C/C=C\CCCCCCCC(=O)OC(COC(C)=O)COC(=O)CCCCCCCCCCCCCCC (centres unmarked) [EC-18]
MTD ([1]; Stage 1, daily dose, approved for Stage 2): 2000 mg
serious adverse events (SAE) across study arms ([1]; human, in vivo): no appreciable differences in SAEs were observed across the study arms
attribution of reported AEs ([1]; human, in vivo, 7 weeks): all the reported AEs were attributable to chemoradiation treatment and not to EC-18
IL-1β concentration at 4th and 7th weeks (IL-1β; 4th and 7th weeks of treatment): under the detection limit
IL-1β concentration vs placebo, HPV+/HPV− (IL-1β; regardless of HPV infection state): significantly lower compared with the placebo group
IL-1β concentration vs placebo, with or without SOM (IL-1β; [3]): significantly lower compared with the placebo group
IL-1β concentration vs placebo, weekly or tri-weekly cisplatin (IL-1β; regardless of the weekly or tri-weekly cisplatin treatment): significantly lower than in the placebo group
IL-1β concentration vs placebo, total (IL-1β; throughout seven weeks treatment period): significantly lower than the placebo group
TGF-β concentration vs placebo, total (TGFβ; 7th week of chemoradiation therapy): significantly higher than the placebo group
TGF-β concentration vs placebo, HPV-positive (TGFβ; HPV-positive population): significantly higher compared with placebo
TGF-β concentration vs placebo, with or without SOM (TGFβ; [3]): higher compared with the placebo group
TGFβ concentration vs placebo, tri-weekly cisplatin (TGFβ; sub-population with tri-weekly cisplatin): not significantly different
TGF-β concentration vs placebo, cisplatin once a week (TGFβ; sub-population with weekly cisplatin): significantly higher compared with placebo
reduction of incidence of SOM compared to placebo population ([2]; EC-18 group vs placebo): over 35%
therapeutic benefit over the control group ([2]; EC-18 up to 2000 mg/day, 7 weeks, with radiation and cisplatin): clear therapeutics benefit over the control group
delay of SOM onset compared with placebo [2, 4]: 8 days
delay of first opioid use vs placebo, mean [2, 4]: 6.3 days
delay of first opioid use vs placebo, median [2, 4]: 11.5 days
time to SOM onset ([2]; PP population, EC-18 2,000 mg, placebo 43 days): 51 days
incidence of SOM through active treatment period ([2]; PP population, baseline through 7-week active treatment period, EC-18 2,000 mg, placebo 65.0%): 36.4%
incidence of SOM (number of subjects) ([2]; PP population, baseline through active treatment period and STFU, EC-18 2000 mg (n=22), placebo 14): 10
incidence of SOM ([2]; PP population, baseline through active treatment period and STFU, EC-18 2000 mg, placebo 70.0%): 45.5% and 45%
time to first use of opioid analgesics, median ([2]; PP population, evaluable subjects n=8, EC-18 2000 mg, placebo 25.5 days): 37 days
time to first use of opioid analgesics, mean ([2]; PP population, evaluable subjects n=8, EC-18 2000 mg, placebo 26 days): 32.3 days
SOM incidence at each week interval ([2]; PP population, weekly intervals, vs placebo): less than placebo group
incidence of SOM, HPV+ ([2]; subjects with HPV+, EC-18 2000 mg, placebo 66.7%): 35.3%
incidence of SOM, HPV− ([2]; subjects with HPV−, EC-18 2000 mg, placebo 71.4%): 75%
incidence of SOM, tri-weekly cisplatin ([2]; subjects with tri-weekly cisplatin, EC-18 2000 mg, placebo 70.0%): 66.7%
incidence of SOM, weekly cisplatin ([2]; subjects with weekly cisplatin, EC-18 2000 mg, placebo 70.0%): 37.5%
